Test results as given in patent US9406887B2, “Solution, organic semiconductor material, organic semiconductor film, electronic device and electronic equipment” (RICOH COMPANY, LTD., priority 2013, dated 2016).

Tests used:
[1] = Weight variation (TG) on heating, thermal analyzer EXSTRA6200; format: physicochemical; settings: heated to 250° C. at 20° C./min, nitrogen atmosphere
Experimental: After 50 mg (0.10 mmol) of the compound having the formula (1-1) were placed in an aluminum pan, they were heated to have a temperature of 250° C. at 20° C./min and weight variation (TG) thereof was measured using a thermal analyzer EXSTRA6200 from Seiko Instruments, Inc. in a nitrogen atmosphere. Thus, 29 mg (yield rate quant.) of a dark purple solid compound having the formula (2-1) was obtained.

[2] = Solubility of the compound in an organic solvent (saturated solution at 25° C. after reflux); format: physicochemical; settings: cooled to 25° C. after reflux; for solubility in CHCl3: chloroform
Experimental: After the compound was added to […] of an organic solvent such as toluene, THF and chloroform until insoluble residue remained, the mixture was stirred for 10 min while the organic solvent was refluxed with heat. Next, after the mixture was cooled to have a temperature of 25° C., it was stirred for 1 hr. Further, after quietly put for 16 hrs, the top clear layer of the mixture was filtered through a PTFE filter having a hole diameter of 0.2 μm to prepare a saturated solution. Next, the solution was dried under reduced pressure and the solubility of the compound in an organic solvent was measured. The evaluation standard of the solubility of the compound in an organic solvent is as follows.

Compound	weight reduction (TG) [1] [%]	solubility in THF [2]	solubility in CHCl3 [2]	solubility in Toluene [2]
CCCCCCCCCCCCOc1cc(-c2ccc(-c3ccc(C4=C5C(=O)N(C(=O)OC(C)(C)C)C(c6ccc(-c7ccc(-c8cc(OCCCCCCCCCCCC)c(OCCCCCCCCCCCC)c(OCCCCCCCCCCCC)c8)s7)s6)=C5C(=O)N4C(=O)OC(C)(C)C)s3)s2)cc(OCCCCCCCCCCCC)c1OCCCCCCCCCCCC [formula (1-25)]	10.3	Excellent (not less than 0.5% by weight)	Excellent (not less than 0.5% by weight)	Excellent (not less than 0.5% by weight)
CC(C)(C)OC(=O)N1C(=O)C2=C(c3ccc(Br)s3)N(C(=O)OC(C)(C)C)C(=O)C2=C1c1ccc(Br)s1 [formula (1-4)]	31.6	Excellent (not less than 0.5% by weight)	Excellent (not less than 0.5% by weight)	Good (not less than 0.1% and less than 0.5% by weight)
CCCCCCCCCCCCOc1cc(-c2ccc(-c3ccc(-c4ccc(C5=C6C(=O)N(C(=O)OC(C)(C)C)C(c7ccc(-c8ccc(-c9ccc(-c%10cc(OCCCCCCCCCCCC)c(OCCCCCCCCCCCC)c(OCCCCCCCCCCCC)c%10)s9)s8)s7)=C6C(=O)N5C(=O)OC(C)(C)C)s4)s3)s2)cc(OCCCCCCCCCCCC)c1OCCCCCCCCCCCC [formula (1-27)]	9.4	Good (not less than 0.1% and less than 0.5% by weight)	Excellent (not less than 0.5% by weight)	Good (not less than 0.1% and less than 0.5% by weight)
CCCCCCc1ccc(-c2ccc(C3=C4C(=O)N(C(=O)OC(C)(C)C)C(c5ccc(-c6ccc(CCCCCC)s6)s5)=C4C(=O)N3C(=O)OC(C)(C)C)s2)s1 [formula (1-12)]	23.8	Good (not less than 0.1% and less than 0.5% by weight)	Excellent (not less than 0.5% by weight)	Excellent (not less than 0.5% by weight)
CC(C)(C)OC(=O)N1C(=O)C2=C(c3cccs3)N(C(=O)OC(C)(C)C)C(=O)C2=C1c1cccs1 [formula (1-1)]	34.6	Excellent (not less than 0.5% by weight)	Excellent (not less than 0.5% by weight)	Excellent (not less than 0.5% by weight)

Other lines, results leading:

weight reduction (TG) [1] [%]	solubility in THF [2]	solubility in CHCl3 [2]	solubility in Toluene [2]	Compound
19.8	Excellent (not less than 0.5% by weight)	Excellent (not less than 0.5% by weight)	Excellent (not less than 0.5% by weight)	CCCCCCc1ccc(-c2ccc(-c3ccc(C4=C5C(=O)N(C(=O)OC(C)(C)C)C(c6ccc(-c7ccc(-c8ccc(CCCCCC)s8)s7)s6)=C5C(=O)N4C(=O)OC(C)(C)C)s3)s2)s1 [formula (1-16)]
23.1	Excellent (not less than 0.5% by weight)	Excellent (not less than 0.5% by weight)	Excellent (not less than 0.5% by weight)	CCCCCCc1csc(-c2ccc(C3=C4C(=O)N(C(=O)OC(C)(C)C)C(c5ccc(-c6cc(CCCCCC)cs6)s5)=C4C(=O)N3C(=O)OC(C)(C)C)s2)c1 [formula (1-17)]
23.1	Excellent (not less than 0.5% by weight)	Excellent (not less than 0.5% by weight)	Excellent (not less than 0.5% by weight)	CCCCCCOc1ccc(-c2ccc(C3=C4C(=O)N(C(=O)OC(C)(C)C)C(c5ccc(-c6ccc(OCCCCCC)cc6)s5)=C4C(=O)N3C(=O)OC(C)(C)C)s2)cc1 [formula (1-18)]
	Poor (less than 0.005% by weight)	Poor (less than 0.005% by weight)	Poor (less than 0.005% by weight)	O=C1NC(c2cccs2)=C2C(=O)NC(c3cccs3)=C12 [formula (2-1)]
